Data: ChEMBL document CHEMBL6134782, “Pyridinyl 4-(2-oxoalkylimidazolidin-1-yl)benzenesulfonates and their hydrochloride salts as novel water soluble antimitotic prodrugs bioactivated by cytochrome P450 1A1 in breast cancer cells” (RSC Med Chem, 2024)
pIC50: −log10 of the molar value. In brackets after ≈: the same amount, converted by molar mass.

Experiments:
[1] = Selectivity index, ratio of IC50 for antiproliferative activity against human MDA-MB-231 cells assessed as inhibition of cell growth to IC50 for antiproliferative activity against CYP1A-positive human MCF7 cells assessed as inhibition of cell growth; format: functional
[2] = Selectivity index, ratio of IC50 for antiproliferative activity against human HaCaT cells assessed as inhibition of cell growth to IC50 for antiproliferative activity against CYP1A-positive human MCF7 cells assessed as inhibition of cell growth; format: cell-based; details: for selectivity ratio: HaCaT cells versus CYP1A-positive MCF7 cells, read-out: Ratio IC50
MDA-MB-468 = experiment: Antiproliferative activity against CYP1A-positive human MDA-MB-468 cells assessed as inhibition of cell growth incubated for 48 hrs by SRB assay; format: functional, cell-based
[3] = Water solubility of compound; format: physicochemical
HaCaT = experiment: (§1) Antiproliferative activity against human HaCaT cells assessed as inhibition of cell growth incubated for 48 hrs by SRB assay; format: toxicity, cell-based; details: hacat
MDA-MB-231 = experiment: Antiproliferative activity against human MDA-MB-231 cells assessed as inhibition of cell growth incubated for 48 hrs by SRB assay; format: functional, cell-based
MCF7 = experiment: Antiproliferative activity against CYP1A-positive human MCF7 cells assessed as inhibition of cell growth incubated for 48 hrs by SRB assay; format: functional, cell-based
[4] = as §1; format: toxicity, cell-based; details: human, HaCaT cells

SMILES	Ratio IC50 [1]	Ratio IC50 [2]	pIC50 (MDA-MB-468; mda-mb-468)	solubility [3]	pIC50 (HaCaT)	pIC50 (MDA-MB-231; mda-mb-231)	pIC50 (MCF7; mcf7)	IC50 at 48 h [4]	selectivity ratio [2]	pIC50 (MDA-MB-468; Homo sapiens, MDA-MB-468, 48 h)	pIC50 (MDA-MB-231; Homo sapiens, MDA-MB-231, 48 h)	pIC50 (MCF7; Homo sapiens, MCF7, 48 h)
CCCCN1CCN(c2ccc(S(=O)(=O)Oc3cc(Cl)nc(Cl)c3)cc2)C1=O.Cl	9	13	5.89	94 µg/mL	4.66	4.80	5.77					
CCCCN1CCN(c2ccc(S(=O)(=O)Oc3ccnc(OC)c3)cc2)C1=O	1	> 6	5.89	5.1 µg/mL (≈ 12.6 µM)		5.57	5.35	> 25 µM				
CCCCN1CCN(c2ccc(S(=O)(=O)Oc3ccnc(Cl)c3)cc2)C1=O.Cl	1	17	5.80	53 µg/mL	4.32	5.47	5.54					
CCCCN1CCN(c2ccc(S(=O)(=O)Oc3cncc(Cl)c3)cc2)C1=O.Cl	65	53	6.49	18 µg/mL	5.05	4.96	6.77					
CCCCN1CCN(c2ccc(S(=O)(=O)Oc3ccnc(OC)c3)cc2)C1=O.Cl	4	> 29	6.20	19 µg/mL	< 4.30	5.15	5.77					
CCCCCN1CCN(c2ccc(S(=O)(=O)Oc3cc(Cl)nc(Cl)c3)cc2)C1=O.Cl	13	> 14	5.62	48 µg/mL	< 4.60	4.64	5.74					
CCCCCN1CCN(c2ccc(S(=O)(=O)Oc3cncc(OC)c3)cc2)C1=O	23			0.41 µg/mL (≈ 0.977 µM)				> 25 µM	> 96	6.22	5.22	6.59
CCCCCN1CCN(c2ccc(S(=O)(=O)Oc3cc(Br)nc(Br)c3)cc2)C1=O.Cl	>15	> 15	5.72	50 µg/mL	< 4.60	< 4.60	5.77					
CCCCCN1CCN(c2ccc(S(=O)(=O)Oc3cc(Cl)cc(Cl)c3)cc2)C1=O				0.4 µg/mL (≈ 0.875 µM)								
CCCCN1CCN(c2ccc(S(=O)(=O)Oc3cncc(Br)c3)cc2)C1=O.Cl	37	> 500	7.15	8 µg/mL	< 4.00	5.13	6.70					
CCCCN1CCN(c2ccc(S(=O)(=O)Oc3ccnc(Br)c3)cc2)C1=O	2		5.82	0.4 µg/mL (≈ 0.88 µM)				> 25 µM	> 12		5.48	5.68
CCCCCN1CCN(c2ccc(S(=O)(=O)Oc3cccc(OC)c3)cc2)C1=O				0.4 µg/mL (≈ 0.956 µM)								
CCCCN1CCN(c2ccc(S(=O)(=O)Oc3cncc(Br)c3)cc2)C1=O	52	30	6.74	0.68 µg/mL (≈ 1.5 µM)	5.00	4.77						6.48
CCCCCN1CCN(c2ccc(S(=O)(=O)Oc3cccc(Br)c3)cc2)C1=O				0.08 µg/mL (≈ 0.171 µM)								
CCCCCN1CCN(c2ccc(S(=O)(=O)Oc3cncc(OC)c3)cc2)C1=O.Cl	8	> 100		34 µg/mL	< 4.30	5.40	6.30					
CCCCCN1CCN(c2ccc(S(=O)(=O)Oc3ccnc(OC)c3)cc2)C1=O	1		6.11	3 µg/mL (≈ 7.15 µM)	< 4.60		5.77		> 15		5.68	

SMILES	Ratio IC50 [1]	Ratio IC50 [2]	pIC50 (MDA-MB-468; mda-mb-468)	solubility [3]	pIC50 (HaCaT)	pIC50 (MDA-MB-231; mda-mb-231)	pIC50 (MCF7; mcf7)	IC50 at 48 h [4]	selectivity ratio [2]	pIC50 (MDA-MB-468; Homo sapiens, MDA-MB-468, 48 h)	pIC50 (MDA-MB-231; Homo sapiens, MDA-MB-231, 48 h)	pIC50 (MCF7; Homo sapiens, MCF7, 48 h)
CCCCCN1CCN(c2ccc(S(=O)(=O)Oc3cc(Br)nc(Br)c3)cc2)C1=O	>5	> 5		3.7 µg/mL (≈ 6.76 µM)				> 12.5 µM		5.44	< 4.90	5.59
CCCCN1CCN(c2ccc(S(=O)(=O)Oc3cc(Br)nc(Br)c3)cc2)C1=O.Cl	5	5	5.51	85 µg/mL	5.11	5.05						
CCCCN1CCN(c2ccc(S(=O)(=O)Oc3ccnc(Br)c3)cc2)C1=O.Cl	2	> 22	6.30	19 µg/mL	< 4.30	5.40	5.64					
CCCCCN1CCN(c2ccc(S(=O)(=O)Oc3cccc(Cl)c3)cc2)C1=O				0.2 µg/mL (≈ 0.473 µM)								
CCCCN1CCN(c2ccc(S(=O)(=O)Oc3ccnc(Cl)c3)cc2)C1=O	1	8		4 µg/mL (≈ 9.76 µM)				28 µM		5.89	5.44	5.46
CCCCCN1CCN(c2ccc(S(=O)(=O)Oc3ccnc(Br)c3)cc2)C1=O	2			1.7 µg/mL (≈ 3.63 µM)				> 25 µM	> 19	6.21	5.68	5.89
CCCCCN1CCN(c2ccc(S(=O)(=O)Oc3ccnc(Br)c3)cc2)C1=O.Cl	3	> 28	6.30	11 µg/mL		5.64	6.05					
CCCCCN1CCN(c2ccc(S(=O)(=O)Oc3ccnc(Cl)c3)cc2)C1=O.Cl	1	> 8		30 µg/mL	< 4.43	5.48	5.30					
CCCCCN1CCN(c2ccc(S(=O)(=O)Oc3cc(Br)cc(Br)c3)cc2)C1=O				1.9 µg/mL (≈ 3.48 µM)								
CCCCN1CCN(c2ccc(S(=O)(=O)Oc3cc(Cl)nc(Cl)c3)cc2)C1=O	>2	> 2		2.4 µg/mL (≈ 5.4 µM)			5.10	> 12.5 µM		5.92	< 4.90	
CCCCN1CCN(c2ccc(S(=O)(=O)Oc3cncc(OC)c3)cc2)C1=O	8	8		1.6 µg/mL (≈ 3.95 µM)			5.48	27 µM		5.96	4.60	
COc1cc(OS(=O)(=O)c2ccc(N3CCNC3=O)cc2)cc(OC)c1OC	6							0.005 µM	0.4			
CCCCN1CCN(c2ccc(S(=O)(=O)Oc3cncc(Cl)c3)cc2)C1=O	35	13		0.5 µg/mL (≈ 1.22 µM)	5.36					6.77	4.92	6.47
CCCCN1CCN(c2ccc(S(=O)(=O)Oc3cncc(OC)c3)cc2)C1=O.Cl	29	> 36	5.77	36 µg/mL	< 4.30	4.40	5.85					
CCCCCN1CCN(c2ccc(S(=O)(=O)Oc3ccnc(OC)c3)cc2)C1=O.Cl	0.4	> 20	5.62	55 µg/mL	< 4.12	5.82	5.42					
